This note sets out measurements from patent US20230114241A1, “METHODS OF TREATING EPILEPSY USING THE SAME” (Trevena, Inc., priority 2019, published 2023).

The target in assay [1] is T1, human sphingosine-1-phosphate receptor 1 (S1P1) (Homo sapiens, UniProt P21453). In words: β-Arrestin2 recruitment assay (PathHunter), S1P1 CHO-K1 cells. The note with it: for Emax: efficacy normalized to maximum efficacy of fingolimod, read-out: hS1P1 B-arrestin2 SPAN; for EC50: read-out: hS1P1 B-arrestin2 pEC50 (converted). Type of assay: cell-based. In a few lines: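 CHO-K1 cells co-expressing EA-β-arrestin2 and ProLink-tagged human S1P1 plated overnight, then stimulated 60 min at 37 °C. Enzyme-fragment complementation (β-galactosidase) detected after 1 h at room temperature by luminescence; values normalized to fingolimod.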
On the technique in general: Recruitment of arrestin is a read-out of receptor activation apart from second messengers.
Target sequence in this assay (P21453 whole entry, the tested form may be a part): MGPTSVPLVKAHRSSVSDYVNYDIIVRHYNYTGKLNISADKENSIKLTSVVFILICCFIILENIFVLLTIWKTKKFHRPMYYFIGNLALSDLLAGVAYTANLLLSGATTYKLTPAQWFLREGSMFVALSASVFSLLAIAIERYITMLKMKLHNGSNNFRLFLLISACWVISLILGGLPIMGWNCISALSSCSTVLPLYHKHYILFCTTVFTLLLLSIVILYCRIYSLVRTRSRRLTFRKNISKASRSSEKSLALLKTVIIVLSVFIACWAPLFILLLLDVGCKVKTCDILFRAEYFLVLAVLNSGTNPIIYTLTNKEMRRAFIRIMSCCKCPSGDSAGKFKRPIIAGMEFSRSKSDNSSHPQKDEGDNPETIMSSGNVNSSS
Target sequence in this assay (P32121 whole entry partner, the tested form may be a part): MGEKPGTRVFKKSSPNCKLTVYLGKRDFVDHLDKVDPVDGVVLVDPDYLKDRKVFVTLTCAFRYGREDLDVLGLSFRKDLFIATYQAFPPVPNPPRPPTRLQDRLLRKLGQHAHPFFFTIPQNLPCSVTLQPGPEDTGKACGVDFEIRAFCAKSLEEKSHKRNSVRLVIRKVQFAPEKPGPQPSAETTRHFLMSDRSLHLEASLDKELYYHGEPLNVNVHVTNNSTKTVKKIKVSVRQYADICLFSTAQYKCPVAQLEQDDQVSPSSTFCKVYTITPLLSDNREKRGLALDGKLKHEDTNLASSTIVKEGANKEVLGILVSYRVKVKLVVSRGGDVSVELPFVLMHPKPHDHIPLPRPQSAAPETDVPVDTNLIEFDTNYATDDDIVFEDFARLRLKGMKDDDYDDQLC

In assay [2] the target is T1, human sphingosine-1-phosphate receptor 1 (S1P1). Put plainly: Inhibition of cAMP production (HTRF cAMP HiRange), S1P1 CHO-K1 cells. The format is cell-based. The settings on record: for Emax: CHO-K1, efficacy normalized to maximum efficacy of fingolimod, read-out: hS1P1 CAMP SPAN; for EC50: read-out: hS1P1 CAMP pEC50 (converted). Summed up: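 CHO-K1 cells co-expressing human S1P1 (C-terminal ProLink tag) and EA-β-arrestin2, plated overnight; after 30 min compound incubation at 37 °C, intracellular cAMP measured by HTRF TR-FRET following 1 h at room temperature. Values normalized to fingolimod.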
Target sequence in this assay (P21453 whole entry, the tested form may be a part): as the sequence (P21453 whole entry, the tested form may be a part) above
On the technique in general: Changes in cAMP serve as a functional read-out for many G protein-coupled receptors.

[3] abbreviates: CHO-K1, β-arrestin2 recruitment.
[4] abbreviates: β-arrestin2 recruitment, potency.
Setting [5] is: inhibition of cAMP production, potency.
The mark [6] stands for this setting: inhibition of cAMP production, S1P1.

Turning to `COc1ccccc1-c1nnc(-c2ccc3c(c2)c(=O)on3C)o1` [Compound 340, 5-[5-(2-methoxyphenyl)-1,3,4-oxadiazol-2-yl]-1-methyl-1,3-dihydro-2,1-benzoxazol-3-one], the Emax in assay [1] (setting [3]) and in assay [2] (inhibition of cAMP production) was below 75% in each case. Moreover, the EC50 is above 10 µM in assay [1] (setting [4]) and above 0.316 µM in assay [2] (setting [5]).
As to `CC(C)Oc1ccccc1-c1noc(-c2ccc3c(c2)nnn3C(C)C)n1` [Compound 62, 3-(2-isopropoxyphenyl)-5-(1-isopropyl-1H-benzo[d][1,2,3]triazol-5-yl)-1,2,4-oxadiazole], the Emax in assay [1] (setting [3]) and in assay [2] (inhibition of cAMP production) was above 75% throughout. For the same compound, the EC50 in assay [1] (setting [4]) is above 10 µM; in assay [2] (setting [5]), above 0.316 µM.
In the case of `CCC1(CC)CC(=O)c2cc(-c3nc(-c4cncnc4)no3)ccc2O1` [Compound 620, 2,2-diethyl-6-(3-(pyrimidin-5-yl)-1,2,4-oxadiazol-5-yl)chroman-4-one], the Emax in assay [1] (CHO-K1) was above 75%; in assay [2], below 75%. Besides, the EC50 in assay [1] (β-arrestin2 recruitment, S1P1) was below 10 µM; in assay [2] (setting [6]) it was below 0.316 µM.
For `CCCn1nnc2cc(-c3nc(-c4ccc(C(F)(F)F)c(F)c4)no3)ccc21` [Compound 193, 5-{3-[3-fluoro-4-(trifluoromethyl)phenyl]-1,2,4-oxadiazol-5-yl}-1-propyl-1H-1,2,3-benzotriazole], the Emax in assay [1] (setting [3]) and in assay [2] (inhibition of cAMP production) was below 75% each time. The EC50 in assay [1] (setting [4]) is above 10 µM; in assay [2] (setting [5]), above 0.316 µM.
As for `Cc1cc(C)cc(-c2noc(-c3ccc4c(c3)nnn4C3CCOCC3)n2)c1` [Compound 93, 5-[3-(3,5-dimethyl-phenyl)-1,2,4-oxadiazol-5-yl]-1-(oxan-4-yl)-1H-1,2,3-benzotriazole], the Emax in assay [1] (setting [3]) was above 75%; in assay [2] (inhibition of cAMP production), below 75%. The figures for the EC50 in assay [1] (setting [4]) and in assay [2] (setting [5]) were above 10 µM and above 0.316 µM, respectively.
In the case of `CCC1(CC)CC(=O)c2cc(-c3nc(-c4cccs4)no3)ccc2O1` [Compound 467, 2,2-diethyl-6-(3-(thiophen-2-yl)-1,2,4-oxadiazol-5-yl)chroman-4-one], the Emax in assay [1] (CHO-K1) and in assay [2] was above 75% each time. Moreover, the EC50 is below 10 µM in assay [1] (β-arrestin2 recruitment, S1P1) and below 0.316 µM in assay [2] (setting [6]).
Regarding `COc1ncccc1-c1noc(-c2ccc3c(c2)nnn3C(C)C)n1` [Compound 619, 5-(1-isopropyl-1H-benzo[d][1,2,3]triazol-5-yl)-3-(2-methoxy-pyridin-3-yl)-1,2,4-oxadiazole], the Emax in assay [1] (CHO-K1) and in assay [2] was above 75% throughout. The EC50 in assay [1] (β-arrestin2 recruitment, S1P1) was below 10 µM; in assay [2] (setting [6]), below 0.316 µM.
As to `CC(C)n1nnc2cc(-c3nc4cccc(Br)c4o3)ccc21` [Compound 429, 7-bromo-2-(1-isopropyl-1H-benzo[d][1,2,3]triazol-5-yl)benzo[d]oxazole], the Emax in assay [1] (CHO-K1) and in assay [2] was above 75% each time. In addition, the EC50 is above 10 µM in assay [1] (β-arrestin2 recruitment, S1P1) and above 0.316 µM in assay [2] (setting [6]).
As to `COc1ccc(-c2noc(-c3ccc4c(c3)nnn4CC(C)(C)O)n2)c(C)c1` [Compound 647, 1-{5-[3-(4-methoxy-2-methylphenyl)-1,2,4-oxadiazol-5-yl]-1H-1,2,3-benzotriazol-1-yl}-2-methylpropan-2-ol], the “hS1P1 B-arrestin2 pEC50” value in assay [1] (β-arrestin2 recruitment, S1P1) was above 5. Besides, in assay [2] (setting [6]), the EC50 was below 0.316 µM.
Regarding `CC(C)(CO)Cn1nnc2cc(-c3noc(-c4ccncc4C(F)(F)F)n3)ccc21` [Compound 528, 2,2-dimethyl-3-(5-(5-(3-(trifluoro-methyl)pyridin-4-yl)-1,2,4-oxadiazol-3-yl)-1H-benzo[d][1,2,3]triazol-1-yl)propan-1-ol], the Emax is below 75% in assay [1] (CHO-K1) and above 75% in assay [2]. The EC50 was above 10 µM in assay [1] (β-arrestin2 recruitment, S1P1) and above 0.316 µM in assay [2] (setting [6]).
Regarding `COc1ccccc1-c1nnc(-c2ccc3c(c2)CCC(=O)N3)o1` [Compound 341, 6-[5-(2-methoxyphenyl)-1,3,4-oxadiazol-2-yl]-1,2,3,4-tetrahydro-quinolin-2-one], the Emax in assay [1] (setting [3]) and in assay [2] (inhibition of cAMP production) was below 75% in each case. The EC50 in assay [1] (setting [4]) is above 10 µM; in assay [2] (setting [5]), above 0.316 µM.
Consider `O=C1c2cc(-c3nc(-c4ccncc4)no3)ccc2OC(CO)(CO)C1Br` (stereo not shown) [Compound 483, 3-bromo-2,2-bis(hydroxy-methyl)-6-[3-(pyridin-4-yl)-1,2,4-oxadiazol-5-yl]-3,4-dihydro-2H-1-benzopyran-4-one], for which the results for the Emax in assay [1] (CHO-K1) and in assay [2] were below 75% and above 75%, respectively. Also, the EC50 is above 10 µM in assay [1] (β-arrestin2 recruitment, S1P1) and above 0.316 µM in assay [2] (setting [6]).
For the compound `Cc1ccc(-c2nc(-c3ccc4c(c3)nnn4C(C)C)no2)c(C)c1` [Compound 166, 5-(2,4-dimethylphenyl)-3-(1-isopropyl-1H-benzo[d][1,2,3]triazol-5-yl)-1,2,4-oxadiazole], the Emax in assay [1] (setting [3]) is above 75%; in assay [2] (inhibition of cAMP production), below 75%. Besides, the EC50 in assay [1] (setting [4]) was above 10 µM; in assay [2] (setting [5]) it was above 0.316 µM.
Regarding `COc1ccccc1-c1csc(-c2ccc3c(ccn3C(C)C)n2)n1` [Compound 411, 2-(1-isopropyl-1H-pyrrolo[3,2-b]pyridin-5-yl)-4-(2-methoxyphenyl)thiazole], the Emax in assay [1] (CHO-K1) and in assay [2] was below 75% throughout. The EC50 is above 10 µM in assay [1] (β-arrestin2 recruitment, S1P1) and above 0.316 µM in assay [2] (setting [6]).
Take `CC(C)n1nnc2cc(-c3nc(-c4ccccc4Cl)no3)ccc21` [Compound 17]: the Emax in assay [1] (setting [3]) and in assay [2] (inhibition of cAMP production) was above 75% throughout. Also, the figures for the EC50 in assay [1] (setting [4]) and in assay [2] (setting [5]) were below 10 µM and below 0.316 µM, respectively.
Regarding `CC(C)n1nnc2cc(-c3noc(-c4ccccc4N(C)C)n3)ccc21` [Compound 615, N,N-dimethy1-2-{3-[1-(propan-2-yl)-1H-1,2,3-benzotriazol-5-yl]-1,2,4-oxadiazol-5-yl}aniline], the Emax in assay [1] (CHO-K1) and in assay [2] was above 75% each time. Besides, the EC50 is below 10 µM in assay [1] (β-arrestin2 recruitment, S1P1) and below 0.316 µM in assay [2] (setting [6]).
On to `N#Cc1cc(-c2nnc(-c3cccc4[nH]cnc34)o2)ccc1NCC(F)F` [Compound 586, 5-[5-(1H-1,3-benzodiazol-4-yl)-1,3,4-oxadiazol-2-yl]-2-[(2,2-difluoro-ethyl)amino]benzonitrile], for which the Emax in assay [1] (CHO-K1) and in assay [2] was above 75% in each case. Further, the EC50 in assay [1] (β-arrestin2 recruitment, S1P1) is below 10 µM; in assay [2] (setting [6]), below 0.316 µM.
On to `CCC1(CC)CC(=O)c2cc(-c3nc(-c4cccc(C)c4)no3)ccc2O1` [Compound 225, 2,2-diethyl-6-(3-(m-tolyl)-1,2,4-oxadiazol-5-yl)chroman-4-one], for which the Emax in assay [1] (setting [3]) was below 75%; in assay [2] (inhibition of cAMP production), above 75%. The EC50 in assay [1] (setting [4]) was below 10 µM; in assay [2] (setting [5]), above 0.316 µM.
As to `O=C1CC(CO)(CO)Oc2ccc(-c3nc(-c4cccnc4)no3)cc21` [Compound 478, 2,2-bis(hydroxymethyl)-6-[3-(pyridin-3-yl)-1,2,4-oxadiazol-5-yl]-3,4-dihydro-2H-1-benzopyran-4-one], the Emax in assay [1] (CHO-K1) and in assay [2] was below 75% in each case. For the same compound, the EC50 is above 10 µM in assay [1] (β-arrestin2 recruitment, S1P1) and above 0.316 µM in assay [2] (setting [6]).
Consider `CCc1ccccc1-c1nc(-c2ccc3c(c2)nnn3CC(C)(C)CO)no1` [Compound 527, 3-(5-(5-(2-ethylphenyl)-1,2,4-oxadiazol-3-yl)-1H-benzo[d][1,2,3]triazol-1-yl)-2,2-dimethylpropan-1-ol], for which the Emax in assay [1] (CHO-K1) and in assay [2] was above 75% throughout. The EC50 in assay [1] (β-arrestin2 recruitment, S1P1) is above 10 µM; in assay [2] (setting [6]), above 0.316 µM.
On to `CCC1(CC)CC(=O)c2cc(-c3nc(-c4ccc(S(=O)(=O)N(C)C)cc4)no3)ccc2O1` [Compound 30, 4-(5-(2,2-diethyl-4-oxochroman-6-yl)-1,2,4-oxadiazol-3-yl)-N,N-dimethylbenzene-sulfonamide], for which the Emax in assay [1] (setting [3]) and in assay [2] (inhibition of cAMP production) was below 75% throughout. Further, the EC50 in assay [1] (setting [4]) was above 10 µM; in assay [2] (setting [5]), above 0.316 µM.
With `CC(C)(CO)n1nnc2cc(-c3noc(-c4ccc5nc[nH]c5c4)n3)ccc21` [Compound 642, 2-(5-(5-(1H-benzo[d]imidazol-6-yl)-1,2,4-oxadiazol-3-yl)-1H-benzo[d][1,2,3]triazol-1-yl)-2-methylpropan-1-ol], the Emax in assay [1] (CHO-K1) and in assay [2] was below 75% throughout. The EC50 in assay [2] (setting [6]) was above 0.316 µM.
Turning to `COc1ccccc1-c1nsc(-c2ccc3c(c2)nnn3C(C)C)n1` [Compound 213, 5-[3-(2-methoxy-phenyl)-1,2,4-thiadiazol-5-yl]-1-(propan-2-yl)-1H-1,2,3-benzotriazole], the Emax in assay [1] (setting [3]) and in assay [2] (inhibition of cAMP production) was above 75% each time. For the same compound, the EC50 in assay [1] (setting [4]) is above 10 µM; in assay [2] (setting [5]) it was above 0.316 µM.
For `CN1C(=O)Cc2cc(-c3nc(-c4cccnc4)no3)ccc21` [Compound 377, 1-methyl-5-[3-(pyridin-3-yl)-1,2,4-oxadiazol-5-yl]-2,3-dihydro-1H-indol-2-one], the Emax in assay [1] (CHO-K1) and in assay [2] was below 75% throughout. The EC50 in assay [1] (β-arrestin2 recruitment, S1P1) is above 10 µM; in assay [2] (setting [6]), above 0.316 µM.
With `c1ccc(-c2noc(-c3ccc4c(c3)nnn4C3CCCC3)n2)cc1` [Compound 7, 1-cyclopentyl-5-(3-phenyl-1,2,4-oxadiazol-5-yl)-1H-1,2,3-benzotriazole], the Emax in assay [1] (setting [3]) and in assay [2] (inhibition of cAMP production) was above 75% throughout. Further, the results for the EC50 in assay [1] (setting [4]) and in assay [2] (setting [5]) were above 10 µM and above 0.316 µM, respectively.
